Measurements: patent US9598441B2, “Therapeutic compounds and methods” (Wayne State University, priority 2011, dated 2017)
pIC50: −log10 of the molar value. Residues, ends and D or L forms follow the SMILES beside them. *: point of attachment. Cbz = O=C(OCc1ccccc1)*; CH2F = FC*

Legend:
[1] = test system: CARP-1, cyclin B1, Cdc20, Cdh1, APC-2, CDKIs, caspases, p38, Bcl2 family proteins; experiment: Western blot of protein levels in treated cells; type: cell-based; conditions: for effect of pre-treatment on CFM-4-dependent loss of cyclin B1 and Cdc20 proteins (WB): pre-treatment before CFM-4
Description: (§1) Logarithmically growing cells were either untreated or treated with different agents for various time periods. The cells were lysed to prepare protein extracts. IP was carried out by incubating approximately 1 mg of the protein lysate with appropriate antibodies, and the immunoprecipitates or cell lysates were then electrophoresed on 9-12% SDS-polyacrylamide gels, and transferred to nitrocellulose membranes. The membranes were subsequently probed with various antibodies to determine expression/presence of the corresponding proteins. The cell growth inhibition was assessed by using MTT assay. Briefly, MTT (3-[4,5-Dimethylthiazol-2-yl]-2,5diphenyltetrazolium bromide) was dissolved in sterile 1×PBS to prepare a stock solution of 5 mg/ml. The solution was subsequently filtered through 0.2 μm filter and stored at 2-8° C. 4−5×10^2 cells were seeded in 96-well plates. After 72 h incubation with or without different agents, MTT stock solution was added to each culture being assayed to equal one tenth the original culture volume, followed by incubation of cells at 37° C. for another 2 h. At the end of the incubation, the media was removed and cells were treated with 100-200 μl of DMSO to solubilize the dye. The assessment of the live cells was derived by measuring the absorbance of the converted dye at wavelength of 570 nm.

[2] = biological target: T1, Gst-APC-2 (685-754) (Homo sapiens, UniProt Q9UJX6); experiment: In vitro binding of SMIs, immobilized Gst-APC-2 pre-incubated with CFM; conditions: WB with anti HA-tag
T1 construct: immobilizing the Gst-APC-2 (685-754) peptide with Gst-beads; made in house; host or cells: E. coli BL-21 (DE3)
T1 sequence (Q9UJX6 685-754): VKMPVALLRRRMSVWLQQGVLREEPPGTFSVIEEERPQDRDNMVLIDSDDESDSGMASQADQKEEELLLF
Description: (§2) The CFM-4 and 5 were separately dissolved in DMSO to obtain a stock of 20-50 mM. For in vitro binding experiments we utilized affinity-purified Gst-APC-2 (685-754) and His-TAT-HA-tagged A-epitope (WT) peptide. Ten nanogram of the His-TAT-HA-tagged A-epitope (WT) peptide was first allowed to bind with Ni-NTA beads (ProBond, InVitrogen), and then the reaction was incubated with DMSO (control), 100 μM CFM-4, or 100 μM CFM-5 for 30 min at RT. The reactions were then subjected to three washes with the binding buffer, followed by incubation with 10 ng of affinity-purified Gst-APC-2 (685-754) peptide for 30 min at RT. The reactions were washed again for three times with PBS, eluted and analyzed on a SDS-PAGE followed by western blotting (WB) with anti-Gst antibodies. A similar strategy was performed by immobilizing the Gst-APC-2 (685-754) peptide with Gst-beads. The beads were washed, incubated with DMSO or the CFMs, and the reactions washed again. The reactions were then allowed to incubate with affinity purified A-epitope peptide, and the complexes analyzed by SDS-PAGE followed by WB with anti HA-tag antibodies.

[3] = biological target: T2, CARP-1 binding with APC-2 (Homo sapiens, UniProt Q8IX12); experiment: Fluorescence polarization assay (FPA) for inhibitors of CARP-1-APC-2 binding; conditions: fluorescein-tagged A-epitope peptide and Gst-APC-2 (685-754)
T2 construct: made in house; host or cells: E. coli BL-21 (DE3)
T2 sequence (Q8IX12 951-980 limits assumed): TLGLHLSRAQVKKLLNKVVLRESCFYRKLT
Description: Although, several formats for FP are indicated in the published literature (Inglese, J., Johnson, R. L., Simeonov, A., Xia, M., Zheng, W., Austin, C. P., Auld, D. S. (2007) Nat. Chem. Biol. 3(8), 466-79), the assays using 96-well or higher density plates are often and routinely employed. Optimization of FP for HTS involves several steps including the determination of Kd values, optimization of the buffer conditions, incubation and measurement times, and determination of the DMSO tolerance of the assay. Our goal was to minimize variation and to aim for adequate signal:background without adversely effecting the sensitivity of the assay. The FP polarization values in milli-polarization (mp) were measured to determine changes in the mp (Amp=mp of bound peptide mp of free peptide), the Kd and Ki constants of the binding. A 30-mer CARP-1 peptide that contained APC-2-binding epitope (A-epitope peptide) was commercially synthesized (US Biologicals, MA), labeled with fluorescein at the N-terminus, and purified to >98% purity. Increasing concentrations of A-epitope peptide were incubated with the indicated quantities of the affinity-purified Gst-APC-2 (685-754) protein in assay buffer containing 0.01% triton-X100. Affinity-purified Gst-NEMO (221-317) was included as a negative control. The Δmp was measured by excitation at 485 nm and emission at 538 nm.
The kinetics of CARP-1 binding with APC-2 was determined, and whether this binding could be exploited to identify SMIs of CARP-1-APC-2 interaction was investigated. For this purpose, a FPA utilizing the affinity-purified Gst-APC-2 (685-754) protein and the fluorescein-tagged A-epitope peptide was developed as detailed in methods. […] The signal to background ratio of 6 underscored robustness of this assay. Since, the quality (precision) and suitability of the FPA for HTS is usually defined by the Z′ factor (25, 40), we utilized the positive and negative control mean signals (μc+ and μc−, respectively) and their standard deviations (σc+ and σc−) to calculate the Z′ factor using the equation Z′=1−[3(σc++σc−)/(μc+−μc−)]. […]

[4] = biological target: T3, His-TAT-HA-tagged A-epitope peptide [CARP-1 (951-980)] (Homo sapiens, UniProt Q8IX12); experiment: In vitro binding of SMIs, immobilized A-epitope peptide pre-incubated with CFM; conditions: 100 μM, 30 min at RT; WB with anti-Gst
T3 construct: wild-type or scrambled His-TAT-HA-CARP-1 (951-980) peptides; made in house; host or cells: E. coli BL-21 (DE3)
T3 sequence (Q8IX12 951-980 limits assumed): T2 sequence (Q8IX12 951-980 limits assumed)
Description: as §2

[5] = test system: caspase-3, caspase-8, caspase-9, caspase-2; experiment: ApoAlert Caspase profiling plate, fluorescence-based; type: cell-based; conditions: pre-treatment before CFM-4
Description: For apoptosis ELISA assay, 4−5×10^2 cells were seeded in 96-well plates and treated essentially as indicated in the MTT assay above. Untreated as well as treated cells were lysed, and levels of mono and oligo-nucleosomal DNA fragments in the lysates were determined by measuring optical density of each sample at 405 nm and 495 nm wavelengths. […] For TUNEL labeling, the cells were treated with various agents, fixed, labeled and photographed essentially as detailed in immuno-localization protocols described before (Zhang, L., Levi, E., Majumder, P., Yu, Y., Aboukameel, A., Du, J., Xu, H., Mohammad, R. M., Hatfield, J. S., Wali, A., Adsay, V., Majumdar, A. P. N., and Rishi, A. K. (2007) Mol. Cancer. Ther. 6(5), 1661-1672). […] Cell lysates derived from vehicle DMSO (Control) or CFM-4-treated cells were added to the wells that had immobilized fluorogenic caspase-3, caspase-8, caspase-9, or caspase-2 substrates. The fluorescence released from the activated caspase-dependent cleavage of respective substrate was detected by a plate reader at the excitation and emission wavelengths of 380 nm and 460 nm, respectively.

[6] = test system: HBC, colon, prostate, pancreatic cancer, MPM and lymphoma cells; experiment: MTT cell viability assay, cancer cells; type: cell-based, human; conditions: combination with CFM-4
Description: as §1
To test whether CFMs that interfere with CARP-1 binding with APC-2 modulate cell growth, HBC, colon, prostate, pancreatic cancer, MPM and lymphoma cells, as well as the immortalized, mammary epithelial MCF-10A cells were utilized. The cells were either treated with vehicle (DMSO) or various doses of the respective compound for a period of 72 h, and percent of live/viable cells for each compound was determined relative to the untreated controls as described in Methods.

CC[C@H](C)[C@H](NC(=O)[C@H](CCC(=O)O)NC(=O)[C@@H](NC(C)=O)C(C)C)C(=O)N[C@H](C=O)CC(=O)O [Ac-VEOD-CHO, reference compound] (Ac-VEID-aldehyde)
effect of pre-treatment on CFM-4-dependent loss of cyclin B1 and Cdc20 proteins (WB) [1]: blocked CFM-4-dependent loss

O=C1N(CCc2ccccc2)c2ccc(Br)cc2C12NN=C(c1ccccc1)S2 (stereo not shown) [CFM-5, 5-bromo-1-phenethyl-5′-phenyl-3′H-spiro[indoline-3,2′-[1,3,4]thiadiazol]-2-one]
binding of immobilized Gst-APC-2 (685-754) with A-epitope peptide after pre-incubation with compound [2]: failed to abolish its binding
pIC50 [3]: 5.85
binding of immobilized A-epitope peptide with Gst-APC-2 (685-754) after pre-incubation with compound [4]: abrogated its binding

CC(C)C[C@H](NC(=O)[C@H](Cc1ccccc1)NC(=O)c1cnccn1)B(O)O [velcade, Bortezomib, reference compound]
CARP-1 levels (WB) ([1]; 50 nM velcade 6 h or 24 h, 20 μM CFM-4 24 h): modest increase in CARP-1 levels
effect on CFM-4-dependent loss of cyclin B1 or Cdc20 proteins (WB) ([1]; 50 nM velcade combined with 20 μM CFM-4): failed to interfere

CC[C@H](C)[C@H](NC(=O)OCc1ccccc1)C(=O)N[C@@H](CCC(=O)OC)C(=O)N[C@H](C(=O)N[C@@H](CC(=O)OC)C(=O)CF)[C@@H](C)O [z-IETD-fmk] (Cbz-IE(OMe)TD(OMe)-CH2F)
effect of pre-treatment on CFM-4-dependent activation of caspase 8 or caspase 9 [5]: abolished activation

COC(=O)CC[C@H](NC(=O)[C@H](CC(C)C)NC(=O)OCc1ccccc1)C(=O)N[C@@H](Cc1cnc[nH]1)C(=O)N[C@@H](CC(=O)OC)C(=O)CF [z-LEHD-fmk] (Cbz-LE(OMe)HD(OMe)-CH2F)
effect of pre-treatment on CFM-4-dependent activation of caspase 8 or caspase 9 [5]: abolished activation

COC(=O)C[C@H](NC(=O)[C@H](C)NC(=O)[C@@H](NC(=O)OCc1ccccc1)C(C)C)C(=O)CF [zVAD-fMK, z-VAD-fmk, reference compound] (Cbz-Val-Ala-Asp(OMe)-CH2F)
effect of pre-treatment on CFM-4-dependent loss of cyclin B1 and Cdc20 proteins (WB) [1]: blocked CFM-4-dependent loss
effect on cell growth suppression by CFM-4 (MTT) [6]: blocked the ability of CFM-4 to suppress cell growth
